Assay results as given in patent US20110159479A1, “GENETIC POLYMORPHISMS IN THE CYTOCHROME P450 GENE WITH CLOPIDOGREL RESISTANCE” (Industry-University Cooperation Foundation Yonsei University, priority 2009, published 2011).

Assays:
P2Y12 receptor = target: T1, P2Y12 receptor (Homo sapiens, UniProt Q9H244); assay: VerifyNow P2Y12 platelet-function assay in CAD patients with drug-eluting stents on clopidogrel; format: in vivo; details: for % inhibition of platelet activity: mean ± SD; for Rate of clopidogrel resistance: subjects with CYP2C19*3 A allele
T1 construct: PRU reports the amount of P2Y12 receptor mediated aggregation; from tissue; host or cells: platelets in blood of patients (VerifyNow P2Y12 system, Accumetrics)
T1 sequence (Q9H244 whole entry): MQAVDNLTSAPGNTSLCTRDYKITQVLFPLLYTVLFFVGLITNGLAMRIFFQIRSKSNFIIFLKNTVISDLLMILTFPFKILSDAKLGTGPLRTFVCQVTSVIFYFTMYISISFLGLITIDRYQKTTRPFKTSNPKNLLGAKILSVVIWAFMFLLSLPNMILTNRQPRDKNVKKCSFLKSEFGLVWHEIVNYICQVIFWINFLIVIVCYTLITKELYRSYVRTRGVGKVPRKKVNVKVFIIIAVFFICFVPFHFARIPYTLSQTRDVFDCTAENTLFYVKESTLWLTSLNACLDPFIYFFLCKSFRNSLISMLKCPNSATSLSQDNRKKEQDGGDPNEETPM
Text: (§1) From October 2006 to July 2007, 450 consecutive patients who underwent successful percutaneous coronary intervention (PCI) with drug-eluting stents (DES) were randomly assigned to treatment with dual anti-platelet regimens (aspirin plus clopidogrel, n=225) or triple antiplatelet regimens (aspirin plus clopidogrel plus cilostazol, n=225). Inclusion criteria were: symptomatic coronary artery disease (CAD) or documented myocardial ischemia (by treadmill exercise testing or sestamibi scan); angiographic evidence of 50% diameter stenosis and post procedure Thromobolysis In Myocardial Infarction (TIMI) flow grade 3. Exclusion criteria were: contraindication to antiplatelet agents; previous allergy or intolerance of aspirin or clopidogrel; treatment with warfarin; active bleeding; known platelet dysfunction; abnormal platelet count (<100,000/mm^3). Patients received a 300 mg loading dose of clopidogrel at least 12 hours before the stenting. Stents were deployed according to standard techniques. The maintenance dose for each antiplatelet agent was 100 mg once a day for aspirin, 75 mg once a day for clopidogrel, and 100 mg twice a day for cilostazol. Among the enrolled patients, 387 patients were analyzed for clopidogrel resistance by VerifyNow P2Y12 system (Accumetrics, San Diego, Calif.), and blood sampling for genetic analysis.
(§2) The VerifyNow P2Y12 system is a rapid platelet-function, cartridge based assay designed to directly measure the effects of clopidogrel on the P2Y12 receptor. Results are expressed as P2Y12 reaction units (PRUs) and percentage inhibition. PRU reports the amount of P2Y12 receptor mediated aggregation.
(§3) Values were expressed as mean±SD. Chi-square test for goodness of fit was used to verify agreement with Hardy-Weinberg equilibrium (HWE) using Fisher's exact test. Comparison of discrete variables was performed using the Chi-square test analysis or Fisher's exact test. Comparison of continuous variables between the two study groups was performed using the Student's t-test. Multivariate logistic regression analysis was performed to determine the independent association of CYP gene polymorphisms with clopidogrel resistance. Odds ratios (ORs) were calculated with 95% confidence intervals (CIs) for the relative risk of clopidogrel resistance related to genotypes. Statistical analysis was performed with SPSS 15.0 (SPSS Inc, Chicago, Ill.). All values of P<0.05 were considered statistically significant.

[1] = patients following coronary stenting; previous reports; cited from earlier work
[2] = VerifyNow P2Y12 platelet-function assay in CAD patients with drug-eluting stents on clopidogrel; format: in vivo, human
Text: as §1, §2, §3

COC(=O)[C@H](c1ccccc1Cl)N1CCc2sccc2C1 [clopidogrel, (+)-(S)-methyl 2-(2-chlorophenyl)-2-(6,7-dihydrothieno[3,2-c]pyridin-5(4H)-yl)acetate]
Clopidogrel resistance (percent inhibition <20%), proportion of patients (P2Y12 receptor; 387 CAD patients with DES insertion, 112 patients): 28.9%
% inhibition of platelet activity (P2Y12 receptor; CYP1A1 rs1048943, codominant, genotype AA (211)): 32.5 ± 22.3%
% inhibition of platelet activity (P2Y12 receptor; CYP1A1 rs1048943, codominant, genotype AG (153)): 37.7 ± 24.2%
% inhibition of platelet activity (P2Y12 receptor; CYP1A1 rs1048943, codominant, genotype GG (20)): 38.7 ± 24.4%
% inhibition of platelet activity (P2Y12 receptor; CYP1A1 rs1048943, dominant, genotype AA (210)): 32.5 ± 22.3%
% inhibition of platelet activity (P2Y12 receptor; CYP1A1 rs1048943, dominant, genotype AG/GG (170)): 37.8 ± 24.2%
% inhibition of platelet activity (P2Y12 receptor; CYP1A1 rs1048943, recessive, genotype AA/AG (361)): 34.7 ± 23.2%
% inhibition of platelet activity (P2Y12 receptor; CYP1A1 rs1048943, recessive, genotype GG (19)): 38.7 ± 24.4%
% inhibition of platelet activity (P2Y12 receptor; CYP2C19*2 rs4244285, codominant, genotype AA (39)): 30.9 ± 21.7%
% inhibition of platelet activity (P2Y12 receptor; CYP2C19*2 rs4244285, codominant, genotype GA (133)): 32.5 ± 21.6%
% inhibition of platelet activity (P2Y12 receptor; CYP2C19*2 rs4244285, codominant, genotype GG (210)): 37.2 ± 24.5%
% inhibition of platelet activity (P2Y12 receptor; CYP2C19*2 rs4244285, dominant, genotype GA/AA (172)): 32.1 ± 21.6%
% inhibition of platelet activity (P2Y12 receptor; CYP2C19*2 rs4244285, dominant, genotype GG (210)): 37.2 ± 24.5%
% inhibition of platelet activity (P2Y12 receptor; CYP2C19*2 rs4244285, recessive, genotype AA (39)): 30.9 ± 21.7%
% inhibition of platelet activity (P2Y12 receptor; CYP2C19*2 rs4244285, recessive, genotype GG/GA (343)): 35.3 ± 23.5%
% inhibition of platelet activity (P2Y12 receptor; CYP2C19*3 rs4986893, codominant, genotype AA (2)): 17.0 ± 24.0%
% inhibition of platelet activity (P2Y12 receptor; CYP2C19*3 rs4986893, codominant, genotype GA (68)): 24.9 ± 20.1%
% inhibition of platelet activity (P2Y12 receptor; CYP2C19*3 rs4986893, codominant, genotype GG (316)): 36.9 ± 23.4%
% inhibition of platelet activity (P2Y12 receptor; CYP2C19*3 rs4986893, dominant, genotype GA/AA (70)): 24.6 ± 20.0%
% inhibition of platelet activity (P2Y12 receptor; CYP2C19*3 rs4986893, dominant, genotype GG (316)): 36.9 ± 23.4%
% inhibition of platelet activity (P2Y12 receptor; CYP2C19*3 rs4986893, recessive, genotype AA (2)): 17.0 ± 24.0%
% inhibition of platelet activity (P2Y12 receptor; CYP2C19*3 rs4986893, recessive, genotype GG/GA (384)): 34.8 ± 23.3%
Rate of clopidogrel resistance (P2Y12 receptor; dual regimen therapy (aspirin plus clopidogrel)): 57.6%
Rate of clopidogrel resistance (P2Y12 receptor; triple regimen therapy (aspirin plus clopidogrel plus cilostazol)): 37.1%
Prevalence of clopidogrel nonresponsiveness [1]: 5-44%

O=C1CCc2cc(OCCCCc3nnnn3C3CCCCC3)ccc2N1 [Cilostazol]
Patients on cilostazol, number (percentage of group) ([2]; clopidogrel resistant group (Resistance)): 32 (28.6%)
Patients on cilostazol, number (percentage of group) ([2]; clopidogrel responsive group (No resistance)): 158 (57.5%)
